Data on 1 compound can be found in patent publication US20100041756A1, “METHOD OF MODULATING B CELL FUNCTIONING” (priority 2004, published 2010).

Holding throughout (format): cell-based, mouse
Experiment [1] relates to T cells stimulated with anti-CD3/anti-CD28. Put plainly: Purified T cell proliferation, anti-CD3/anti-CD28, 3H-thymidine incorporation (Example 4). The method, then: (§1) FIG. 10 is a graphical representation depicting that 3,4-DAA and 3-HAA inhibit B and T cell proliferation in vitro. Purified B and T cells were stimulated for 72 h with anti-CD40 (a), or anti-CD3/anti-CD28 (b) respectively, in the presence of varying doses of 3,4-DAA, or 3-HAA.
(§2) A single cell suspension was prepared from spleen by mincing through a cell strainer, and erythrocytes were lysed using an ammonium chloride solution (Sigma, St Louis, Mo., USA). B cells were positively enriched by using anti-IgM MACS microbeads, and T cells were positively enriched using anti-CD4 MACS microbeads and the MACS system, according to the manufacturer's guidelines (Miltenyi Biotec, Bergisch Gladbach, Germany). Purity was assessed by flow cytometric analysis (B cell>90% CD19+, T cell>90% CD4+). Cells were cultured at 5×10^5 cells/ml in 200 μl complete RPMI, as above, in a flat bottom 96-well plate and cultured for 72 h. B cells were stimulated with anti-CD40 monoclonal antibody (10 μg/ml; BD), and T cells were stimulated with 5 μg/ml plate-bound anti-CD3 (BD), 5 μg/ml soluble anti-CD28 (BD). Tranilast, 3-HAA, or vehicle (DMSO) were incubated at concentrations stated with the cultures. 48 hours after stimulation, 100 μl culture medium was collected, and cells were pulsed with 1 μCi ^3H thymidine per well for 18 h. Cells were then harvested and plates assessed for incorporation. Each assay was performed on a minimum of 3 occasions. Data shown is of one representative experiment, and is expressed as mean+/−SD of triplicate in culture. IFN-γ, IL-10 and IL-5 levels was assessed in the culture medium by ELISA, as above.
For orientation: Dividing cells build labelled thymidine or BrdU into new DNA.

Experiment [2] shares this test system. Put plainly: Cytokine production by stimulated T cells in vitro (ELISA). On the procedure:
as §1, §2
A general note: An ELISA detects its analyte on a solid surface through an enzyme-linked reagent.

Experiment [3] concerns B cells stimulated with anti-CD40. Put plainly: Purified B cell proliferation, anti-CD40, 3H-thymidine incorporation (Example 4). On the procedure: as §1, §2

pIC50: −log10 of the molar value.

As to `Nc1c(O)cccc1C(=O)O` [3-HAA, 3-Hydroxyanthranilic acid], the pIC50 in experiment [1] (Mus musculus, T-cell, anti-CD3/CD28, 72 h, 3H-thymidine (FIG. 10B), read-out: IC50 for inhibition of T cell proliferation) is 4.00; in experiment [3] (Mus musculus, B-cell, anti-CD40, 72 h, 3H-thymidine (FIG. 10A), read-out: IC50 for inhibition of B cell proliferation), 4.19. Also, the T cell proliferation result in experiment [1] (anti-CD3/CD28, varying doses (FIG. 10B)) is recorded as “dose-dependently inhibited”. Also, the “IFN-γ production by T-cells” value in experiment [2] (FIG. 10C) is “dose-dependently reduced”. The “IL-10 production by T-cells” value in experiment [2] (FIG. 10D) was “increased”. Further, the “IL-5 production by T-cells” value in experiment [2] (FIG. 10E) is on record as “increased”. In addition, in experiment [3] (anti-CD40, varying doses (FIG. 10A)), the B cell proliferation result is on record as “dose-dependently inhibited”.
